The record followed here is PMC12775802, “Dual targeting of AMRC12 and Malassezia globosa disrupts MYC liquid condensates-driven nuclear pore complex biogenesis in neuroblastoma” (Theranostics, 2026).

The assay addresses ARMC12 (Homo sapiens, UniProt Q5T9G4). The settings on record: recombinant wild-type protein; 20 uM (Figure 4F legend; b48 prints 20 mM); 4 °C, 2 h; compound covalently conjugated to beads; site at R320.

Molecules are shown by their SMILES.

Sequence of ARMC12 (Q5T9G4 1-367 isoform Q5T9G4-2): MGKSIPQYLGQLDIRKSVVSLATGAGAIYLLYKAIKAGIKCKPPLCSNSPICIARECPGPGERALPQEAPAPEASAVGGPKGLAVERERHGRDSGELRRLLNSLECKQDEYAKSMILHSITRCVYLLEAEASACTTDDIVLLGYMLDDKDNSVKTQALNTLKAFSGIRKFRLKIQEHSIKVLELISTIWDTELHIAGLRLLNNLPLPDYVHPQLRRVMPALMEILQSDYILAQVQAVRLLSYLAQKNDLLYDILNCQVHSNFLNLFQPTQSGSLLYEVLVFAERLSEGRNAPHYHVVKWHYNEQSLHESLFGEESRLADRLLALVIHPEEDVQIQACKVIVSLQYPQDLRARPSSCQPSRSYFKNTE

As for `Clc1ccc(C(Cn2ccnc2)OCc2ccsc2Cl)c(Cl)c1` (stereo not shown) [TCZ, tioconazole], the “affinity purification on compound-conjugated NHS beads, western blot” value was “TCZ directly interacted with recombinant wild-type ARMC12 protein rather than its mutant”.
